Laboratory results taken from ChEMBL document CHEMBL1145498, “A systematic interaction map of validated kinase inhibitors with Ser/Thr kinases” (Proc Natl Acad Sci U S A, 2007).

Tests used:
[1] = biological target: Calcium/calmodulin-dependent protein kinase type II subunit beta (Homo sapiens) (UniProt Q13554)
[2] = biological target: Calcium/calmodulin-dependent protein kinase type II subunit delta (Homo sapiens) (UniProt Q13557)
[3] = biological target: T1, Calcium/calmodulin-dependent protein kinase type IV (Homo sapiens) (UniProt Q16566)
T1 sequence (whole entry): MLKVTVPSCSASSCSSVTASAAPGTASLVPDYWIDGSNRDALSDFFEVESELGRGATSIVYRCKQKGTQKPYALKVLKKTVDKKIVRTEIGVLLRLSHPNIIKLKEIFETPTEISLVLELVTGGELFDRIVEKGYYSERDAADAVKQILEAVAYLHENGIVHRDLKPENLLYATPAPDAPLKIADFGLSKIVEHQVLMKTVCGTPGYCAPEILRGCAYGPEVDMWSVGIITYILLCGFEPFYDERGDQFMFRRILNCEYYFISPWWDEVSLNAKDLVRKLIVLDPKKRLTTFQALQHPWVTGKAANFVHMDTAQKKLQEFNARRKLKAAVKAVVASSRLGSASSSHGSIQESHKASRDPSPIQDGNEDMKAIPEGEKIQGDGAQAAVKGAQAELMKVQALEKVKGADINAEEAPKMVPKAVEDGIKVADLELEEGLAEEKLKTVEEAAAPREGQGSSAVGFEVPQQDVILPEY

[4] = biological target: Cyclin-dependent kinase 2 (Homo sapiens, UniProt P24941)
[5] = biological target: Casein kinase I isoform gamma-2 (Homo sapiens) (UniProt P78368)
Chain of Casein kinase I isoform gamma-2 (Homo sapiens) (P78368 whole entry, looked up, canonical isoform): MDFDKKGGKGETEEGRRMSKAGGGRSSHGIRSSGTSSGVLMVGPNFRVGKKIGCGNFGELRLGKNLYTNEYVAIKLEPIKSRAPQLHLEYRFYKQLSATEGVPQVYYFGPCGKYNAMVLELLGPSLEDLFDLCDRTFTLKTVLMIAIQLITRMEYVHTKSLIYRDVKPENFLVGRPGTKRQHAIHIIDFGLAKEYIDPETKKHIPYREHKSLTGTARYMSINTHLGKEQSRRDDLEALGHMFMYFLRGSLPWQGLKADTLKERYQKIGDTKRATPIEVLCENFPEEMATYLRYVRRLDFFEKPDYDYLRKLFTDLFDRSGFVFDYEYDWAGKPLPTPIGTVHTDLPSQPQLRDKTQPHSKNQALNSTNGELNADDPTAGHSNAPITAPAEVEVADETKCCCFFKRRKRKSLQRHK

[6] = biological target: Casein kinase I isoform gamma-3 (Homo sapiens) (UniProt Q9Y6M4)
Chain of Casein kinase I isoform gamma-3 (Homo sapiens) (Q9Y6M4 whole entry, looked up, canonical isoform): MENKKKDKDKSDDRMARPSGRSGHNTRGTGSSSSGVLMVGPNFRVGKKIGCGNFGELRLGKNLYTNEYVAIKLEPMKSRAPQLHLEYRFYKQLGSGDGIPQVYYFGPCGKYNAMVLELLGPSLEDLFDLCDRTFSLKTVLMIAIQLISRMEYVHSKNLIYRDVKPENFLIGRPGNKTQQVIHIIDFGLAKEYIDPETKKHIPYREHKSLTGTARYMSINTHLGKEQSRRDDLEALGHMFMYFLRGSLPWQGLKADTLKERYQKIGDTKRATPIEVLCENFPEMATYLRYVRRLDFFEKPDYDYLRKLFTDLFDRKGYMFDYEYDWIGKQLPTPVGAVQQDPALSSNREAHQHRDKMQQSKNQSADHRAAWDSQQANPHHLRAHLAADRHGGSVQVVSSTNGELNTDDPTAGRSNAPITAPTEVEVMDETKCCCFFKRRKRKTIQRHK

[7] = biological target: Serine/threonine-protein kinase Nek6 (Homo sapiens) (UniProt Q9HC98)
Chain of Serine/threonine-protein kinase Nek6 (Homo sapiens) (Q9HC98 whole entry): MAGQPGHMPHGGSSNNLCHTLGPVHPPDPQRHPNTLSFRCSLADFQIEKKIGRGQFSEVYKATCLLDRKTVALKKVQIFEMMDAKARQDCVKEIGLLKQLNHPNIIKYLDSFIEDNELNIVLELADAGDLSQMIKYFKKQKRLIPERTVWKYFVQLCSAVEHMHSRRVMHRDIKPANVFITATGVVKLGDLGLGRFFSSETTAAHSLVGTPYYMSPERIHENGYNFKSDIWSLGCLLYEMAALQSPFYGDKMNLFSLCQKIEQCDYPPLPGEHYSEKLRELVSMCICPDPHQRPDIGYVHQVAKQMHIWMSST

[8] = biological target: Serine/threonine-protein kinase PAK 4 (Homo sapiens) (UniProt O96013)
Chain of Serine/threonine-protein kinase PAK 4 (Homo sapiens) (O96013 whole entry, looked up): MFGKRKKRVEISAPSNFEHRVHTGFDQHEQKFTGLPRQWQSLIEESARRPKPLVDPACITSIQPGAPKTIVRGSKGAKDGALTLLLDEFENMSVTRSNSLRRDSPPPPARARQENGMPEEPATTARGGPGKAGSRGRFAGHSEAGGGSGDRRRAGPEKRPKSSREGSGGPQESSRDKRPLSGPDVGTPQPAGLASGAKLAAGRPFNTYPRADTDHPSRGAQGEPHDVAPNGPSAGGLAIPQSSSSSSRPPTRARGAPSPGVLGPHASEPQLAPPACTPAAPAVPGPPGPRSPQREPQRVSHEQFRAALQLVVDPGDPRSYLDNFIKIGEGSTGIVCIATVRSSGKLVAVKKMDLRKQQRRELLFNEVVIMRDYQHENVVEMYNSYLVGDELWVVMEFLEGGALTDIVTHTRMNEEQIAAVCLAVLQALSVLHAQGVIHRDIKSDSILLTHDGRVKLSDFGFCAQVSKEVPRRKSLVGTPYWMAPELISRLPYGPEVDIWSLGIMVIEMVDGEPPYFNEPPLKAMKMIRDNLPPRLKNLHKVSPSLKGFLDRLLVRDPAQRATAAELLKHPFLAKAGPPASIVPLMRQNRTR

[9] = biological target: Serine/threonine-protein kinase PAK 6 (Homo sapiens) (UniProt Q9NQU5)
Chain of Serine/threonine-protein kinase PAK 6 (Homo sapiens) (Q9NQU5 whole entry, looked up): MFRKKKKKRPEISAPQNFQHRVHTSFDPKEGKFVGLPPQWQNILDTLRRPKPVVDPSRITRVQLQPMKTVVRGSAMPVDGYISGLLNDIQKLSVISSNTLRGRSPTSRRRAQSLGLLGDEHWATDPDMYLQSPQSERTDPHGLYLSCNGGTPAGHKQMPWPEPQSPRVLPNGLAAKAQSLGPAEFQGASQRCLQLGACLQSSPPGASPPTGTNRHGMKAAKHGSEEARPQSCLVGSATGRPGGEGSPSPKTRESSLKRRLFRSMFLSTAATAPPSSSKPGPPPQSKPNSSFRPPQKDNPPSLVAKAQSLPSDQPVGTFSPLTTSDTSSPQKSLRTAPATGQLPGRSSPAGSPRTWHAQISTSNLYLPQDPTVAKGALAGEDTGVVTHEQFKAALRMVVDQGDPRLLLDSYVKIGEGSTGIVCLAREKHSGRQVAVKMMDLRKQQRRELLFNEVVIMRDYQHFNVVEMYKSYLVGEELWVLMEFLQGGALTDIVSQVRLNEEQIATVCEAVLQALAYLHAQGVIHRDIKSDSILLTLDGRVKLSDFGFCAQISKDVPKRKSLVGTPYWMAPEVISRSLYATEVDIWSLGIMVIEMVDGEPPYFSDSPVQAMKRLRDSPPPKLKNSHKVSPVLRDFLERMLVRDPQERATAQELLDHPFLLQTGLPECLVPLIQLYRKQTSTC

[10] = biological target: T2, 3-phosphoinositide-dependent protein kinase 1 (Homo sapiens) (UniProt O15530)
T2 sequence (whole entry): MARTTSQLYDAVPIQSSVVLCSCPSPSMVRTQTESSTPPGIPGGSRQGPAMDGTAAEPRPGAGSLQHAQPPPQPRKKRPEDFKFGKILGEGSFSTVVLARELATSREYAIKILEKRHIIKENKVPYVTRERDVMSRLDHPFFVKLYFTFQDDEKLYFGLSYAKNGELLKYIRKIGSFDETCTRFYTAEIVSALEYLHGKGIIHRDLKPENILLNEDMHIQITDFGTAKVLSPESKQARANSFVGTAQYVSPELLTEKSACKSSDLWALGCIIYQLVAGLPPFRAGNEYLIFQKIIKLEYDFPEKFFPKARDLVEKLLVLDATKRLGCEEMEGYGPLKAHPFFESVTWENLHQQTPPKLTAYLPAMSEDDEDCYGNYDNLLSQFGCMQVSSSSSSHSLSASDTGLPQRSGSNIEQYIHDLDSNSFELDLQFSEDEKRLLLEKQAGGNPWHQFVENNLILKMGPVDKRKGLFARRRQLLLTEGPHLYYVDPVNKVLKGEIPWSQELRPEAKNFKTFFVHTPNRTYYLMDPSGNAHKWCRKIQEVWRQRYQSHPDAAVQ

[11] = biological target: T3, Serine/threonine-protein kinase PLK4 (Homo sapiens) (UniProt O00444)
T3 sequence (whole entry): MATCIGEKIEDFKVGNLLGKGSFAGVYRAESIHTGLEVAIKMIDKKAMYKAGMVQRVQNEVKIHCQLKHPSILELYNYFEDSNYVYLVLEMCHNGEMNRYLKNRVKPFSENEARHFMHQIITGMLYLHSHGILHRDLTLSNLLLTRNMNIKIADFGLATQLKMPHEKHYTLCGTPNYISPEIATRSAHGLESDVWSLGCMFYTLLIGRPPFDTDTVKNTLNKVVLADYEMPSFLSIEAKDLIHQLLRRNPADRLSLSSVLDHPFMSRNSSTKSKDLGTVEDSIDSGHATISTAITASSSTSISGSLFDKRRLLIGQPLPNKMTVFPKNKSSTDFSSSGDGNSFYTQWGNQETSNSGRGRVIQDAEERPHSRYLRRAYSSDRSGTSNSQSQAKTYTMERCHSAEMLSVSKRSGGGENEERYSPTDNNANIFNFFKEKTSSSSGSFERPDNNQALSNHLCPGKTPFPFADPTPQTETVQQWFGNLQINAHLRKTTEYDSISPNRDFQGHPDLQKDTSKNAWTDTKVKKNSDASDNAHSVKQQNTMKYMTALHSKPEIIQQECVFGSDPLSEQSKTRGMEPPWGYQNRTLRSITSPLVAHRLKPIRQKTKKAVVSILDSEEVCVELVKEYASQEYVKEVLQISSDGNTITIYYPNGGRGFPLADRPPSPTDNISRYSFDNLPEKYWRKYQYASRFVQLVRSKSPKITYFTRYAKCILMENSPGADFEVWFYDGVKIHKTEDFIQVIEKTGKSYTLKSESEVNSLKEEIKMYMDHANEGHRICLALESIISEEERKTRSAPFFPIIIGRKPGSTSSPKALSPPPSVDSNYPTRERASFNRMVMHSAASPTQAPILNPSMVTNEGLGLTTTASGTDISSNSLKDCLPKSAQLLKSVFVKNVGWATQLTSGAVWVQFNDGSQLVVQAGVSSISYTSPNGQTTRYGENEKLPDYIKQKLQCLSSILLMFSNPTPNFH

[12] = biological target: TRAF2 and NCK-interacting protein kinase (Homo sapiens) (UniProt Q9UKE5)
Chain of TRAF2 and NCK-interacting protein kinase (Homo sapiens) (Q9UKE5 whole entry, looked up): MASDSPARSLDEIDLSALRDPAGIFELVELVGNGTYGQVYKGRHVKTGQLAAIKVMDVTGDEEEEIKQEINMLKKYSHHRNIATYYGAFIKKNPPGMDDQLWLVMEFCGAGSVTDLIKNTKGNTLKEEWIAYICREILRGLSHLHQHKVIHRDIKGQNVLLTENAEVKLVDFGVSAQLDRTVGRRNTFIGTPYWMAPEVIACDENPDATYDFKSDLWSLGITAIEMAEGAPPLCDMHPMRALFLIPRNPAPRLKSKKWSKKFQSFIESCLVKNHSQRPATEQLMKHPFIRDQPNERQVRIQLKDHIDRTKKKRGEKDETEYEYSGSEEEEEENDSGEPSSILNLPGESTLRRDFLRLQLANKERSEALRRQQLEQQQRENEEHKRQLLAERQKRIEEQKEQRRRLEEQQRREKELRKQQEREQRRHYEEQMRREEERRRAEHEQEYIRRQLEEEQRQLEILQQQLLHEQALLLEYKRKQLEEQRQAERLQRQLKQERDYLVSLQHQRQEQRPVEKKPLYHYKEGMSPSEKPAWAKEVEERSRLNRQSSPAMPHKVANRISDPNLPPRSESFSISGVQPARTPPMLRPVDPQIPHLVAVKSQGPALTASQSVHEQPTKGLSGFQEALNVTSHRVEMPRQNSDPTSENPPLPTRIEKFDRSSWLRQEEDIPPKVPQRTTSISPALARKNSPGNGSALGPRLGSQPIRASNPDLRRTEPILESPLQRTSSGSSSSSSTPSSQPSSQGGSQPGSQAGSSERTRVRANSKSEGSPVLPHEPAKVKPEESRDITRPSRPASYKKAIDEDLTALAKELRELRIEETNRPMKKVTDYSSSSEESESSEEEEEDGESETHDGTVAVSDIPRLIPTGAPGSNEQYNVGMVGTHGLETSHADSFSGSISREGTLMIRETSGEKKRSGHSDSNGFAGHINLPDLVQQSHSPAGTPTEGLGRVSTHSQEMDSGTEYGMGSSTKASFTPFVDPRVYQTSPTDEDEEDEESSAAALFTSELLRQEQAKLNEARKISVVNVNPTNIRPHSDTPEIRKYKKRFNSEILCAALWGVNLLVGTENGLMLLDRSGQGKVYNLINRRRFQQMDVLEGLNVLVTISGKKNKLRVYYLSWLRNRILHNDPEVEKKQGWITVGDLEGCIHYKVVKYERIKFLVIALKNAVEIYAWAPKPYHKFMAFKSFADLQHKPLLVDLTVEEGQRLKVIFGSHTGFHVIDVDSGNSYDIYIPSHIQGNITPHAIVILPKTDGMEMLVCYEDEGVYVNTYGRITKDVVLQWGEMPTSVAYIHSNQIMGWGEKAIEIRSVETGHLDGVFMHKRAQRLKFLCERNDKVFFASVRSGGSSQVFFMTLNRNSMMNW

[13] = biological target: T4, Serine/threonine-protein kinase VRK1 (Homo sapiens) (UniProt Q99986)
T4 sequence (whole entry): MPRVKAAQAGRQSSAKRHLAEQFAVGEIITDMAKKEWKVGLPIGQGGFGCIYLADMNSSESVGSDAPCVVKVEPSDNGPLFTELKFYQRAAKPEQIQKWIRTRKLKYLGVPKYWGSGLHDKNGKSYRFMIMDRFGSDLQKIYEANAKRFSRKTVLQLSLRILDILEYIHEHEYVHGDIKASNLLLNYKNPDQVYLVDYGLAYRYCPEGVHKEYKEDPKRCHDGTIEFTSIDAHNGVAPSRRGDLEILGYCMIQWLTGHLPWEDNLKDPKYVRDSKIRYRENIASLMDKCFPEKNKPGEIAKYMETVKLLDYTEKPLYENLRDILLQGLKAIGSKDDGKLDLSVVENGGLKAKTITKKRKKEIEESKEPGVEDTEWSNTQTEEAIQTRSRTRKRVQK

Chain of Calcium/calmodulin-dependent protein kinase type II subunit delta (Homo sapiens) (Q13557 whole entry): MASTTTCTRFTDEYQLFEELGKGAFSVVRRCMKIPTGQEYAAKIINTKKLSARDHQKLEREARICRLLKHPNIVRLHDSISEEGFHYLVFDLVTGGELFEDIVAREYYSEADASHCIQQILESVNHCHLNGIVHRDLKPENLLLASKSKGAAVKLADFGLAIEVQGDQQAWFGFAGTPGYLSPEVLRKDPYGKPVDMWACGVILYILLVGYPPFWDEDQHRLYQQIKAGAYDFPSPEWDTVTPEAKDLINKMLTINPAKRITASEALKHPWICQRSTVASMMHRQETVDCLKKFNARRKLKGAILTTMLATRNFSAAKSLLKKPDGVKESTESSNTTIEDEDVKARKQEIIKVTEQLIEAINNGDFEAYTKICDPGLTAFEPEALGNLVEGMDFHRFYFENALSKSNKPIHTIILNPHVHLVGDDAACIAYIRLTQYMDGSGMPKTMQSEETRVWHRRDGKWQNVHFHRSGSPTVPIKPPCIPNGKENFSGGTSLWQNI
Chain of Calcium/calmodulin-dependent protein kinase type II subunit beta (Homo sapiens) (Q13554 whole entry): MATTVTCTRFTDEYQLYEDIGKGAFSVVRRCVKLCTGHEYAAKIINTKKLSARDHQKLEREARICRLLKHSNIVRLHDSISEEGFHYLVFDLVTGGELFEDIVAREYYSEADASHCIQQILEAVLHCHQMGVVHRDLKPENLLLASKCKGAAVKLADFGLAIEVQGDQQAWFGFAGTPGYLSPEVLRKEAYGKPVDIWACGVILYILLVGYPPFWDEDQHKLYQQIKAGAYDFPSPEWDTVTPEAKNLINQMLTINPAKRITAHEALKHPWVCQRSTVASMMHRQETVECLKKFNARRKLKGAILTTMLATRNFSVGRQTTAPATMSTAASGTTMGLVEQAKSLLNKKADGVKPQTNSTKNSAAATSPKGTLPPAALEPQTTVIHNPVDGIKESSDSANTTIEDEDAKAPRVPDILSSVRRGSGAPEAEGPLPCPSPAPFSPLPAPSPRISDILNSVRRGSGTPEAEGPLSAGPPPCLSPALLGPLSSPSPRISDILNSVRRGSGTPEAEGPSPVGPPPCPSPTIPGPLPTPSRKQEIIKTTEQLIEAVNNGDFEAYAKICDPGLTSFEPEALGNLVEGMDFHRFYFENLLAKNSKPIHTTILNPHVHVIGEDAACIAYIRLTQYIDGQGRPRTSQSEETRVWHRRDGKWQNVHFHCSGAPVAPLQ

Structure (SMILES) | ΔTm [1] [°C] | ΔTm [2] [°C] | ΔTm [3] [°C] | ΔTm [4] [°C] | ΔTm [5] [°C] | ΔTm [6] [°C] | ΔTm [7] [°C] | ΔTm [8] [°C] | ΔTm [9] [°C] | ΔTm [10] [°C] | ΔTm [11] [°C] | ΔTm [12] [°C] | ΔTm [13] [°C]
O=C(O)c1cc(NCc2cc(O)ccc2O)ccc1O | 0 | -0.2 | 0.1 | 0.4 | 0.3 | 0.3 | 0 | 0 | -0.1 | 0.2 | 0.1 | 0 | -0.2
COc1cc2ncnc(Nc3ccc(F)c(Cl)c3)c2cc1OCCCN1CCOCC1 | 0.3 | 0.1 | 0.6 | 0 | -0.2 | 0.3 | -0.4 | 1.2 | 0 | -0.5 | 0 | -1 | 0.5
Nc1ncnc2c1c(I)cn2[C@@H]1O[C@H](CO)[C@@H](O)[C@H]1O | 0.4 | -0.4 | 2.5 | 2.9 | 3.7 | 2.7 | -0.2 | 1.1 | 1.1 | 0 | 2.9 | 1.6 | 0.1
CC(C)n1cnc2c(NCc3ccccc3O)nc(NCCCO)nc21 | 0.3 | -0.1 | 0.1 | 1.2 | 0.7 | 0.5 | 0 | 0.5 | 0.3 | 0.1 | 0.1 | 0 | 0
C#Cc1cccc(Nc2ncnc3cc(OCCOC)c(OCCOC)cc23)c1 | 0.5 | -0.3 | 0.1 | -0.6 | -0.1 | 0.2 | -0.7 | 1.6 | -0.1 | 0 | -0.1 | -0.2 | 0.3
Oc1ccc(-c2nc(-c3ccc(F)cc3)c(-c3ccncc3)[nH]2)cc1 | 0.1 | -0.1 | 0.2 | 0.4 | 0.8 | 1.1 | 0.4 | -0.3 | -0.2 | -1 | 1.1 | 1.9 | 0
O=c1ccc2ccc(O)c(O)c2o1 [DAPHNETIN] | 0.1 | -0.1 | -0.1 | 0.7 | 0.1 | 0.4 | -0.3 | 0 | -0.2 | 0 | 0.3 | 0.3 | 0
CC(C)(C)c1nc2c3ccc(F)cc3c3c(=O)[nH]ccc3c2[nH]1 | 1.3 | 1.2 | 4.8 | 1.2 | 0.7 | 0.8 | 0.3 | 1.2 | 2.3 | -1.3 | 11.8 | 3 | 1.1

Continued, values first:

ΔTm [1] [°C] | ΔTm [2] [°C] | ΔTm [3] [°C] | ΔTm [4] [°C] | ΔTm [5] [°C] | ΔTm [6] [°C] | ΔTm [7] [°C] | ΔTm [8] [°C] | ΔTm [9] [°C] | ΔTm [10] [°C] | ΔTm [11] [°C] | ΔTm [12] [°C] | ΔTm [13] [°C] | Structure (SMILES)
1.2 | 1 | 2.8 | 1.5 | 0.7 | 0.7 | -0.2 | 1.8 | 0.8 | 0 | 4.2 | 1.2 | 0.8 | O=C1NC(=O)C(c2c[nH]c3ccccc23)=C1c1c[nH]c2ccccc12
0.8 | 0 | -0.5 | 4.1 | 0.3 | -1.1 | -0.4 | 1.8 | 3.4 | -0.6 | 1.5 | 1.6 | 1 | O=C1Nc2cc(Br)ccc2/C1=C1/Nc2ccccc2/C1=N\O
0.2 | 0.3 | 0.6 | 0.9 | 0.7 | 0.5 | 1 | -0.1 | -0.4 | 0.5 | 0.9 | 0.8 | 0.4 | N#C/C(=C\c1ccc(O)c(O)c1)C(=O)NCc1ccccc1
1.6 | 0.7 | -0.2 | 15.9 | 4.9 | 5.3 | 0.2 | 6.3 | 5.6 | 0.4 | 13.1 | 9.9 | 1.9 | Nc1nc(Nc2ccc(S(N)(=O)=O)cc2)nn1C(=S)Nc1c(F)cccc1F
0.1 | 2.5 | 1.1 | 1.3 | 0.5 | 0.2 | 1.7 | 3.7 | -0.6 | 0.2 | 6.2 | 1.3 | 1.6 | Cn1cc(/C=C2/C(=O)Nc3ccc(S(N)(=O)=O)cc32)c2ccccc21
-0.2 | -0.2 | 0.1 | 0.8 | 0.7 | 0.4 | -0.1 | -0.5 | -0.4 | 0 | 2.8 | 0.2 | -0.1 | CCOc1cc(/C=C(\C#N)C(N)=O)cc(CSc2ccccc2)c1O
